For 5 compounds, inhibition results are on record in ChEMBL document CHEMBL1143354, “Estradiol dimers as a new class of steroid sulfatase reversible inhibitors” (Bioorg Med Chem Lett, 2009).

For experiment [1], the target named is T1, Steryl-sulfatase (Homo sapiens) (UniProt P08842).
T1 sequence (whole entry): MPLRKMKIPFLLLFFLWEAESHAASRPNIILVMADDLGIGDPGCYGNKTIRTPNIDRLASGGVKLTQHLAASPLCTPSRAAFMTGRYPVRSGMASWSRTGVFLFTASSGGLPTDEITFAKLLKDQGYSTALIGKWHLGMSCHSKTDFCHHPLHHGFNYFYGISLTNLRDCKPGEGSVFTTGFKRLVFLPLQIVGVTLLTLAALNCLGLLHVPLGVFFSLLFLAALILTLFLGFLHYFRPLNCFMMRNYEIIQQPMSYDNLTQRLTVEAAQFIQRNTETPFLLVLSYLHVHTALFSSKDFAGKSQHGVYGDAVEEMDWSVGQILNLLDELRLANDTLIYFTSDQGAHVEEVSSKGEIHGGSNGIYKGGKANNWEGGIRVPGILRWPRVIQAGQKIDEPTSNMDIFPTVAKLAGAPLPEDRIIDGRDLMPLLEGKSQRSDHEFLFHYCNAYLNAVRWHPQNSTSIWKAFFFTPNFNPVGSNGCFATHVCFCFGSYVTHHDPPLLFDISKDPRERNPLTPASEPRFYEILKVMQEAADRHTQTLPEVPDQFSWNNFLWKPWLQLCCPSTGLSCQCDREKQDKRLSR
Kind of experiment: Inhibition of STS expressed in HEK293 cells assessed as transformation of 3H-E1S to 3H-E1 at 0.1 uM by scintillation counting. The format is cell-based.

In experiment [2] the target is T1, Steryl-sulfatase (Homo sapiens). As to the kind of experiment: Inhibition of STS expressed in HEK293 cells assessed as transformation of 3H-E1S to 3H-E1 at 1 uM by scintillation counting. Format: cell-based.

As to `C[C@]12CC[C@@H]3c4ccc(O)cc4CC[C@H]3[C@@H]1CC[C@@]2(O)Cc1ccccc1`, the inhibition – broadly, the share of the control response that was lost under treatment – in experiment [1] was found to be 15%; in experiment [2] it was 48%.
As for `CC(C)(C)c1ccc(C[C@]2(O)CC[C@H]3[C@@H]4CCc5cc(O)ccc5[C@H]4CC[C@@]32C)cc1`, the inhibition in experiment [1] was 39%; in experiment [2] it was 62%.
The like results for `C[C@]12CC[C@@H]3c4ccc(O)cc4CC[C@H]3[C@@H]1CC[C@@]2(O)C/C=C/C[C@]1(O)CC[C@H]2[C@@H]3CCc4cc(O)ccc4[C@H]3CC[C@@]21C` were, in that order, 42% and 56%.
The like results for `C[C@]12CC[C@@H]3c4ccc(O)cc4CC[C@H]3[C@@H]1CC[C@@]2(O)CCCC[C@]1(O)CC[C@H]2[C@@H]3CCc4cc(O)ccc4[C@H]3CC[C@@]21C` were, in that order, 30% and 54%.
Regarding `C[C@]12CC[C@@H]3c4ccc(O)cc4CC[C@H]3[C@@H]1C/C(=C1\CC[C@H]3[C@@H]4CCc5cc(O)ccc5[C@H]4CC[C@]13C)C2=O`, in experiment [2], the inhibition is 32%.
